Earlier results in patent US5152997A, “Method and device for transdermally administering testosterone across nonscrotal skin at therapeutically effective levels” (Theratech, Inc., priority 1991, dated 1992).

Legend:
[1] = e.g., neck, back, chest, arms; for delivery of 5-10 mg/day through a limited area

Structure (SMILES): CCCCCCCCCCC(=O)O[C@H]1CC[C@H]2[C@@H]3CCC4=CC(=O)CC[C@]4(C)[C@H]3CC[C@]12C [testosterone undecanoate]
- systemic availability of testosterone (oral administration): provides systemically available testosterone

Structure (SMILES): C[C@]12CC[C@H]3[C@@H](CCC4=CC(=O)CC[C@@]43C)[C@@H]1CC[C@@H]2O [testosterone]
- permeability to testosterone of skin areas normally used for transdermal delivery [1]: too low to permit delivery of the amounts of testosterone needed for therapy
- degradation by the liver (administered orally): rapidly degraded by the liver
